The values below come from PubChem BioAssay AID743469 (Vanderbilt Specialized Chemistry Center, 2014).

Usually IC50 stands for the concentration that inhibits the measured activity by half.

The structures appear in SMILES notation. Active and inactive are the calls of the source. No rule for the calls is given here.

The target in this experiment is Histone-lysine N-methyltransferase 2A (Homo sapiens) (UniProt Q03164). Description: menin-MLL interaction inhibitors, SAR follow-up, biochemical, fluorescence polarization (AID 743469). As to conditions: menin + fluorescein MLL peptide. (In fluorescence polarisation assays a small probe gives low polarisation when free and higher when bound to something large.)
Sequence of Histone-lysine N-methyltransferase 2A (Homo sapiens) (Q03164 whole entry, looked up): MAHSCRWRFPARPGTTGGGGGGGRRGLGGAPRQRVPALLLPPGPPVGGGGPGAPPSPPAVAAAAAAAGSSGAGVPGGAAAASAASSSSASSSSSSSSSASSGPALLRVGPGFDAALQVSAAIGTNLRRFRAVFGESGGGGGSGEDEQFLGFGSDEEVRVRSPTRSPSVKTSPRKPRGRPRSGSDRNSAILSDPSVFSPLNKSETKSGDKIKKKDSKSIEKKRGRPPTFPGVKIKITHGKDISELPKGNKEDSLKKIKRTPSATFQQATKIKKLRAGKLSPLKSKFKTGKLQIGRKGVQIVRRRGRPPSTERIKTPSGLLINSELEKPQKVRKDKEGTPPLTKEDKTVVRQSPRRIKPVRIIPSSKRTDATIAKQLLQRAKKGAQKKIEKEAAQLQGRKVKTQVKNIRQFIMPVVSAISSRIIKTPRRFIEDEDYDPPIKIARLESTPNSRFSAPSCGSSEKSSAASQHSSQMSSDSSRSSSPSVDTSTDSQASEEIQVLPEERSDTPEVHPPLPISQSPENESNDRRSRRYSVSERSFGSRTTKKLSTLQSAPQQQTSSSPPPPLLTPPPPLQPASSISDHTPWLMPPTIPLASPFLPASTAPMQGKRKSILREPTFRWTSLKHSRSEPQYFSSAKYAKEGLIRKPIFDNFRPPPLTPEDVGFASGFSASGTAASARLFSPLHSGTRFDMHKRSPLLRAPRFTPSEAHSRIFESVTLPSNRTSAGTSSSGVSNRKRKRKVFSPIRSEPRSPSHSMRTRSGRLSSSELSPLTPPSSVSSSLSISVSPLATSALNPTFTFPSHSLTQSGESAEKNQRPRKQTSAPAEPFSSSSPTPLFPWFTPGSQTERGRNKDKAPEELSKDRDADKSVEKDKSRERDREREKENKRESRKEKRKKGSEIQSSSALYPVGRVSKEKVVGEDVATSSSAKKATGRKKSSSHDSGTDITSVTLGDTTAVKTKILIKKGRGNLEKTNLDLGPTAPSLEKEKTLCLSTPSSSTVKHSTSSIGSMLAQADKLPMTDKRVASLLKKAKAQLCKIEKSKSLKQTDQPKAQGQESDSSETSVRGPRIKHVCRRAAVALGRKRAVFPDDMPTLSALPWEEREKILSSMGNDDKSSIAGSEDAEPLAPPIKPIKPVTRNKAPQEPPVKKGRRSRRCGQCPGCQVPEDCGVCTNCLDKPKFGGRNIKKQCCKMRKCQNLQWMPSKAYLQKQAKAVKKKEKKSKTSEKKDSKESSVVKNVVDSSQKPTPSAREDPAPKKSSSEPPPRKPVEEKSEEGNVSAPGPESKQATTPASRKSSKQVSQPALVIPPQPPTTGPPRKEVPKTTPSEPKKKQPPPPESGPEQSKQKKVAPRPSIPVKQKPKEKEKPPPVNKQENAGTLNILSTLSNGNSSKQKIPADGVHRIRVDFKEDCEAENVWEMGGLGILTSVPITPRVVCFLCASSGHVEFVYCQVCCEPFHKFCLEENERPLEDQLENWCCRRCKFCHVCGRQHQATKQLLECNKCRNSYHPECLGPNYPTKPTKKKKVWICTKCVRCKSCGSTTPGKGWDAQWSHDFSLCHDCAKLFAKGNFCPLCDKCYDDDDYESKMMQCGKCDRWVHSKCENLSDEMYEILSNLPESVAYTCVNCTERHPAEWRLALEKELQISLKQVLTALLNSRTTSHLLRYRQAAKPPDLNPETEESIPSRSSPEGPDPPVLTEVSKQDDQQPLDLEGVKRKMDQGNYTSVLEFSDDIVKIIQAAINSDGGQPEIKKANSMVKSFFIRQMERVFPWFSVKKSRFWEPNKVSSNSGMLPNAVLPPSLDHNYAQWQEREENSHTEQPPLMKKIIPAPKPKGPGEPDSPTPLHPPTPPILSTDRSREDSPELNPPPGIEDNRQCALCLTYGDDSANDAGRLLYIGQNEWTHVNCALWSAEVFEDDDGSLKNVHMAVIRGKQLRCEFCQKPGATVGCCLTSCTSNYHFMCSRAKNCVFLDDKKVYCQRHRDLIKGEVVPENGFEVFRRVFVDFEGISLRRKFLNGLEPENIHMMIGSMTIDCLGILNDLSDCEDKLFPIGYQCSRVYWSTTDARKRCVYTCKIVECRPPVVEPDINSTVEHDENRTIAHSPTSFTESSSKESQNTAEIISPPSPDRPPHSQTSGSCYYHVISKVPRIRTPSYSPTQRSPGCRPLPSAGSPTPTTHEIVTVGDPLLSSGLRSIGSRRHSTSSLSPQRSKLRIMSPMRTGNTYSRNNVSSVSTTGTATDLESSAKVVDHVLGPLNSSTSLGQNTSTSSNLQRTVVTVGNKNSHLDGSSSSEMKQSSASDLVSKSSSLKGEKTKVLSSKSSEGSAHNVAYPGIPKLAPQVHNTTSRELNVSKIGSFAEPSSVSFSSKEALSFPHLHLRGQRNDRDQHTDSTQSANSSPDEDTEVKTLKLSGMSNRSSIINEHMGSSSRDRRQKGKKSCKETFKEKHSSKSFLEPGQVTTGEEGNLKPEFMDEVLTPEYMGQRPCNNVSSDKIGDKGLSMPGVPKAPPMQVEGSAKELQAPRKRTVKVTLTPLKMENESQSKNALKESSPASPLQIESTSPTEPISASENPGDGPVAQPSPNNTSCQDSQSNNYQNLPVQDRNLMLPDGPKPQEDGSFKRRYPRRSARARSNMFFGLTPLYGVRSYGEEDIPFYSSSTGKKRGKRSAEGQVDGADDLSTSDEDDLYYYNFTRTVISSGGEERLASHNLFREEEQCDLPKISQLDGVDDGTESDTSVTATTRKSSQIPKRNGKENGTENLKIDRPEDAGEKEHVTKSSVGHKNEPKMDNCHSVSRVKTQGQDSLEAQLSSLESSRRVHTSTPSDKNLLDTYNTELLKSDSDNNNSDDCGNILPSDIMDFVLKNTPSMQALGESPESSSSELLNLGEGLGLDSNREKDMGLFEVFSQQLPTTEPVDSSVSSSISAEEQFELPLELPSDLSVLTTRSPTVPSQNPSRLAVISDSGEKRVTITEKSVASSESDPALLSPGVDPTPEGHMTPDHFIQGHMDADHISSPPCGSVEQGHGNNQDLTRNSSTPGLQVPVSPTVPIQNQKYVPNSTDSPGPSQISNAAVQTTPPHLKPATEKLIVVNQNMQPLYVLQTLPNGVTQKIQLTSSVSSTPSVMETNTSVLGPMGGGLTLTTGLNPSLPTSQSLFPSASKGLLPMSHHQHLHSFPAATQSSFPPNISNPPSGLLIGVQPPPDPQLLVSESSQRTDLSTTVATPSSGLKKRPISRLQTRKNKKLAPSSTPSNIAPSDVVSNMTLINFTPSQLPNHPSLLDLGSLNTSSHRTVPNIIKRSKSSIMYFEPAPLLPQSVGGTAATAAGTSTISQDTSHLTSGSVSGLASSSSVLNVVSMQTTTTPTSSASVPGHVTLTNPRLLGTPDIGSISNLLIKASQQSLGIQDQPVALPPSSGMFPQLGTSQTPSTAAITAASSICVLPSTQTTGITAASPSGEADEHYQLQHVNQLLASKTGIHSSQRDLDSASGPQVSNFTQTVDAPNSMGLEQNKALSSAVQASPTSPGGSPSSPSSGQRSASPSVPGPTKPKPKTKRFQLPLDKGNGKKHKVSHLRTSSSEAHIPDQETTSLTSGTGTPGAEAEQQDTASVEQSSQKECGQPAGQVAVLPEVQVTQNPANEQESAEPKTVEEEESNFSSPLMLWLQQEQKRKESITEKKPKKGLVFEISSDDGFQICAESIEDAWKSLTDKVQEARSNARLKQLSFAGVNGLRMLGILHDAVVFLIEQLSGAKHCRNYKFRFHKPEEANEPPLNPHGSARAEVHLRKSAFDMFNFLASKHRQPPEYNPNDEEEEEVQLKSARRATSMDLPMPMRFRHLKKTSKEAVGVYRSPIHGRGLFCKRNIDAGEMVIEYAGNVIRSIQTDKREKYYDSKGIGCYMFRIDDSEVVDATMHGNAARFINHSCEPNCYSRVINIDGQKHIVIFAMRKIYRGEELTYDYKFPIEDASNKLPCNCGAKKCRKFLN

As for `N#Cc1ccc(OCCCN2CCC(C(O)(c3cc(F)cc(F)c3)c3ccccn3)CC2)cc1` (stereo not given), the half-inhibitory concentration (IC50) was 43.7 nM.

For `N#Cc1ccc(OCCCN2CCC(C(O)(c3cccc(F)c3)c3nccs3)CC2)cc1` (stereo not given), the half-inhibitory concentration (IC50) was 19.7 nM.

For the molecule `N#Cc1ccc(OCCCN2CCC(C(O)(c3ccccc3)C3CCCC3)CC2)nc1` (stereo not given), the result was inactive.

Regarding `NS(=O)(=O)c1ccc(OCCCN2CCC(C(O)(c3cccc(F)c3)c3nccs3)CC2)cc1` (stereo not given), the IC50 is 43.7 nM.

Regarding `N#Cc1ccc(OCCCN2CCC(C(O)(c3cccnc3)C3CCCC3)CC2)cc1` (stereo not given), the IC50 was 709 nM.
